Data: patent US10022355B2, “Diaryl and arylheteroaryl urea derivatives as modulators of the 5-HT2A serotonin receptor useful for the prophylaxis and treatment of REM sleep behavior disorder” (Axovant Sciences GmbH, priority 2015, dated 2018)
Entries after “also recorded” stand apart in the source; their conditions may differ.

Key:
[1] = elderly patients; cited from earlier work
[2] = Completed Phase 1 and Phase 2 clinical studies of nelotanserin (originally for primary insomnia); assay type: in vivo, human
Description: Nelotanserin: Nelotanserin (RVT-102), previously known as APD-125, is a potent and selective 5HT2a receptor inverse agonist, and is currently being developed as an oral treatment for REM sleep behavior disorder in patients with DLB. Originally being developed for primary insomnia, seven clinical studies have been completed to date that included five Phase 1 and two Phase 2 studies, and 792 individuals have been exposed to nelotanserin over the dose range of 20 to 160 mg and up to 14 days.

| Compound | side effects [1] | sleep maintenance and consolidation ([2]; Phase 1 and Phase 2 studies) | slow wave sleep ([2]; Phase 1 and Phase 2 studies) | safety and tolerability profile ([2]; five Phase 1 and two Phase 2 studies, 792 individuals exposed, dose range 20 to 160 mg, up to 14 days) | number of sleep phase transitions ([2]; previous clinical studies) |
| --- | --- | --- | --- | --- | --- |
| O=C1CN=C(c2ccccc2Cl)c2cc([N+](=O)[O-])ccc2N1 [Clonazepam, clonazepam] | confusion, daytime sedation, and increased risk of falls | – | – | – | – |
| COc1ccc(NC(=O)Nc2ccc(F)cc2F)cc1-c1c(Br)cnn1C [nelotanserin] | – | improves sleep maintenance and consolidation | increases slow wave sleep | favorable safety and tolerability profile; also recorded: acceptable safety and tolerability profile | reduces the number of sleep phase transitions |
